“And” between values parts separate entries of the source, which are not always exact repeats. Equal values may be shown once. “Also recorded” adds a separate entry of the source. Where a name gives a salt, the structure may show the parent alone. Read-outs that look alike come from different tables or passages of the source.
How the values were obtained:
[1] = tested on: cerebellar Purkinje neurons; settings: local administration, denervation or antipsychotics; cited from earlier work
[2] = Water solubility of Metaphit salts; settings: relative to the hydrochloride
[3] = biological target: phencyclidine receptors ([3H]PCP binding site); parameters: species or system rat
[4] = tested on: Phencyclidine Receptor; type: binding, rat; settings: for IC50: read-out: Apparent IC50
[5] = tested on: Phencyclidine Receptor; type: binding, rat
[6] = biological target: PCP receptors; assay: [3H]PCP binding (Scatchard) in brain homogenates of rats pretreated i.c.v. with Metaphit or saline; parameters: species or system rat (male Sprague-Dawley); settings: saline-pretreated rats; mean ±S.E.
[7] = tested on: muscarinic receptors; type: binding, rat
[8] = tested on: benzodiazepine receptors ([3H]diazepam site); type: binding, rat
[9] = cited from earlier work
[10] = biological target: T1, opioid receptors (Rattus norvegicus, UniProt P33535); settings: cited from earlier work
T1 construct: from tissue; host or cells: brain tissue (rat, inferred from the sister test)
T1 sequence (P33535 whole entry): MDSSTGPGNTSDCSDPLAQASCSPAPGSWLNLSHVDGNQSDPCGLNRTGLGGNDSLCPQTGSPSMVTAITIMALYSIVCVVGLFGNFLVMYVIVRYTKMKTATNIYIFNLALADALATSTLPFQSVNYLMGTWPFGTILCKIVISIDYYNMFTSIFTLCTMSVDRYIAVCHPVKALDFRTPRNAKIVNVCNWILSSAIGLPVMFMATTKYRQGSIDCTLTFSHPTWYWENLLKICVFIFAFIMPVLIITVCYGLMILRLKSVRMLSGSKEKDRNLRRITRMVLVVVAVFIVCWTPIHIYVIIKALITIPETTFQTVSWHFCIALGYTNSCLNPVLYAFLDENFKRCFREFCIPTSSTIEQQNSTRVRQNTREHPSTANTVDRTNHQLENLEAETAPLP

[11] = biological target: PCP receptors; assay: Scatchard analysis of [3H]TCP binding after treatment with affinity ligand; parameters: species or system rat

Molecule: lithium
- effect on PCP/PCMP-induced depressions of cerebellar Purkinje neurons [1]: strongly antagonized PCP-induced depressions

Molecule: S=C=Nc1cccc(C2(N3CCCCC3)CCCCC2)c1 [methanesulfonate salt]
- solubility in water [2]: considerably more soluble in water than the hydrochloride

Molecule: CC(C)NC1(c2ccccc2)CCCCC1 [PCI]
- IC50 ([3]; read-out: apparent IC50): 0.05 µM

Molecule: c1csc(C2(N3CCCCC3)CCCCC2)c1 [TCP]
- potency relative to PCI [3]: twice as potent as PCI
- affinity for the PCP receptor relative to PCP [4]: considerably higher affinity for the PCP receptor than PCP
- IC50 [4]: 0.02 µM
- washout from homogenate [5]: completely washed out of the homogenate

Molecule: c1ccc(C2(N3CCCCC3)CCCCC2)cc1 [[3H]-PCP]
- Kd [6]: 0.237 ± 0.008 µM
- Non-specific binding of radioligand ([3]; [3H]-PCP): 30 % of the total binding

Molecule: CCNC1(c2ccccc2)CCCCC1 [PCE, (1-Phenylcyclohexyl)ethylamine]
- IC50 ([3]; read-out: apparent IC50): 0.24 µM

Molecule: NCCc1cc(O)c(O)cc1O [6-OHDA]
- effect on PCP/PCMP-induced depressions of cerebellar Purkinje neurons [1]: completely eliminates stereospecific Purkinje cell responses to PCMP

Molecule: CC(C)NC1(c2cccc(N=C=S)c2)CCCCC1 [Isopropylphit]
- IC50 [4]: 2.7 µM

Molecule: S=C=Nc1cccc(C2(N3CCCCC3)CCCCC2)c1 [Metaphit, 1-[1-(3-isothiocyanatophenyl)cyclohexyl]piperidine]
- Maximum % Alkylation by 10 uM Metaphit [7]: 0%
- irreversible loss of QNB binding [7]: without a significant loss of QNB binding
- Maximum % Alkylation by 10 uM Metaphit [8]: 0%

Molecule: CNC1(c2ccccc2Cl)CCCCC1=O (stereo not drawn) [Ketamine]
- psychotomimetic effects relative to PCP ([9]; in vivo): psychotomimetic effects that do not occur as frequently as with PCP

Molecule: c1ccc(C2(N3CCCCC3)CCCCC2)cc1 [PCP, 1-(1-phenylcyclohexyl)piperidine]
- IC50 ([3]; read-out: IC50): 0.075 µM and 0.07 µM
- IC50 ([3]; read-out: apparent IC50): 0.15 µM
- IC50 [7]: 25 µM
- IC50 [8]: > 200 µM
- IC50 [4]: 0.07 µM
- washout from homogenate ([5]; 10 uM PCP alone): completely washed out of the homogenate
- IC50 [10]: 13 µM
- duration of psychological side effects ([9]; use as anesthetic): more than 12 hours

Molecule: c1csc(C2(N3CCCCC3)CCCCC2)c1 [[3H]-TCP]
- Non-specific binding of radioligand [4]: 10%
- Kd ([11]; control tissue, [3H]-TCP 1.0 to 150 nM, read-out: Kd for control ([3H]-TCP)): 0.015 µM

Molecule: CCNC1(c2cccc(N=C=S)c2)CCCCC1 [Ethylphit]
- IC50 [4]: 3.84 µM

Molecule: S=C=Nc1csc(C2(N3CCCCC3)CCCCC2)c1 [Thiophit]
- affinity for the PCP receptor relative to other ligands [4]: much higher affinity for the PCP receptors; also recorded: considerably higher affinity for the PCP receptor than either of the other two affinity ligands
- potency relative to metaphit [4]: three times as potent as metaphit
- IC50 [4]: 0.9 µM
- Bmax ([3H]-TCP) in treated tissue ([11]; 10 μM affinity ligand): 700 fmol/mg protein
- reduction in Bmax ([11]; 10 μM affinity ligand): ~30%
- Kd ([11]; 10 μM affinity ligand, value is for [3H]-TCP (1.0 to 150 nM), read-out: Kd ([3H]-TCP) in treated tissue): 0.027 µM
